Experimental data published in patent US20200045961A1, “HERBICIDAL MIXTURE FOR USE ON WEEDS” (Adama Agan Ltd., priority 2017, published 2020).

How the values were obtained:
Assay in all cases: Field trial, tank mix of Propaquizafop + Fomesafen on Soybean, weed control
Type in all cases: in vivo
Acalypha indica = system: Acalypha indica
Source text: (§1) In the context of the present subject matter, the term “synergy” is as defined by Colby S. R. in an article entitled “Calculation of the synergistic and antagonistic responses of herbicide combinations” published in the journal Weeds, 1967, 15, p. 20-22, incorporated herein by reference in its entirety. The action expected for a given combination of […] active ingredients can be calculated as follows: […]
(§2) When the percentage of herbicidal control observed for the combination is greater than the expected percentage, there is a synergistic effect. When the percentage of control observed for the combination is equal to the expected percentage, there is an additive effect and wherein the percentage of herbicidal control observed for the combination is lower than the expected percentage, there is an antagonistic effect.
(§3) The herbicides were applied using the following applications rates:
(§4) The applications were applied 20 DAS. Design & Plot size: RBD & 25 Sq.mt.
(§5) Species wise weed count may be recorded at 15, 30 and 45 DAA (Days After Application). A subjective score of damage done by the herbicide on the plants may be given based on the weed count compared to the untreated checks. A score of 100% indicated complete control and a score of 0% indicates zero herbicide effect.
(§6) The % control observed may be calculated as follows: […]
(§7) The synergy of the mixture of fomesafen and propaquizafop may be calculated using the formula: […]

Amaranthus viridis = system: Amaranthus viridis
Source text: as §1, §2, §3, §4, §5, §6, §7

Commelina benghalensis = system: Commelina benghalensis
Source text: as §1, §2, §3, §4, §5, §6, §7

Digera arvensis = system: Digera arvensis
Source text: as §1, §2, §3, §4, §5, §6, §7

Echinochloa colona = system: Echinochloa colona
Source text: as §1, §2, §3, §4, §5, §6, §7

Eleusine indica = system: Eleusine indica
Source text: as §1, §2, §3, §4, §5, §6, §7

Dinebra arabica = system: Dinebra arabica
Source text: as §1, §3, §4, §5

CS(=O)(=O)NC(=O)c1cc(Oc2ccc(C(F)(F)F)cc2Cl)ccc1[N+](=O)[O-] [Fomesafen, 5-[2-chloro-4-(trifluoromethyl)phenoxy]-N-(methylsulfonyl)-2-nitrobenzamide]
% control observed (Acalypha indica; 500 ml/Acre, 15DAA): 58.2% | % control observed (Acalypha indica; 500 ml/Acre, 30DAA): 55.4% | % control observed (Acalypha indica; 500 ml/Acre, 45DAA): 53.8% | % control observed (Acalypha indica; 750 ml/Acre, 15DAA): 63.8% | % control observed (Acalypha indica; 750 ml/Acre, 30DAA): 61.7% | % control observed (Acalypha indica; 750 ml/Acre, 45DAA): 60.6% | % control observed (Acalypha indica; 1000 ml/Acre, 15DAA): 75.9% | % control observed (Acalypha indica; 1000 ml/Acre, 30DAA): 73.6% | % control observed (Acalypha indica; 1000 ml/Acre, 45DAA): 72.6% | % control observed (Amaranthus viridis; 500 ml/Acre, 15DAA): 67.7% | % control observed (Amaranthus viridis; 500 ml/Acre, 30DAA): 66.9% | % control observed (Amaranthus viridis; 500 ml/Acre, 45DAA): 64.8% | % control observed (Amaranthus viridis; 750 ml/Acre, 15DAA): 71.3% | % control observed (Amaranthus viridis; 750 ml/Acre, 30DAA): 70.5% | % control observed (Amaranthus viridis; 750 ml/Acre, 45DAA): 69.1% | % control observed (Amaranthus viridis; 1000 ml/Acre, 15DAA): 74.7% | % control observed (Amaranthus viridis; 1000 ml/Acre, 30DAA): 73.7% | % control observed (Amaranthus viridis; 1000 ml/Acre, 45DAA): 71.1% | % control observed (Commelina benghalensis; 500 ml/Acre, 15DAA): 66.2% | % control observed (Commelina benghalensis; 500 ml/Acre, 30DAA): 64.2% | % control observed (Commelina benghalensis; 500 ml/Acre, 45DAA): 62.7% | % control observed (Commelina benghalensis; 750 ml/Acre, 15DAA): 72.8% | % control observed (Commelina benghalensis; 750 ml/Acre, 30DAA): 70.2% | % control observed (Commelina benghalensis; 750 ml/Acre, 45DAA): 69.7% | % control observed (Commelina benghalensis; 1000 ml/Acre, 15DAA): 77.8% | % control observed (Commelina benghalensis; 1000 ml/Acre, 30DAA): 75% | % control observed (Commelina benghalensis; 1000 ml/Acre, 45DAA): 72.5% | % control observed (Digera arvensis; 500 ml/Acre, 15DAA): 70% | % control observed (Digera arvensis; 500 ml/Acre, 30DAA): 68.5% | % control observed (Digera arvensis; 500 ml/Acre, 45DAA): 66.6% | % control observed (Digera arvensis; 750 ml/Acre, 15DAA): 74.2% | % control observed (Digera arvensis; 750 ml/Acre, 30DAA): 71.5% | % control observed (Digera arvensis; 750 ml/Acre, 45DAA): 70.5% | % control observed (Digera arvensis; 1000 ml/Acre, 15DAA): 78.2% | % control observed (Digera arvensis; 1000 ml/Acre, 30DAA): 75.2% | % control observed (Digera arvensis; 1000 ml/Acre, 45DAA): 74% | % control observed (Echinochloa colona; 500 ml/Acre, 15DAA): 8.91% | % control observed (Echinochloa colona; 500 ml/Acre, 30DAA): 6.65% | % control observed (Echinochloa colona; 500 ml/Acre, 45DAA): 5.02% | % control observed (Echinochloa colona; 750 ml/Acre, 15DAA): 14% | % control observed (Echinochloa colona; 750 ml/Acre, 30DAA): 10.7% | % control observed (Echinochloa colona; 750 ml/Acre, 45DAA): 7.5% | % control observed (Echinochloa colona; 1000 ml/Acre, 15DAA): 18.2% | % control observed (Echinochloa colona; 1000 ml/Acre, 30DAA): 15.8% | % control observed (Echinochloa colona; 1000 ml/Acre, 45DAA): 13.6% | % control observed (Eleusine indica; 500 ml/Acre, 15DAA): 8.2% | % control observed (Eleusine indica; 500 ml/Acre, 30DAA): 4.7% | % control observed (Eleusine indica; 500 ml/Acre, 45DAA): 3.3% | % control observed (Eleusine indica; 750 ml/Acre, 15DAA): 12.6% | % control observed (Eleusine indica; 750 ml/Acre, 30DAA): 6.3% | % control observed (Eleusine indica; 750 ml/Acre, 45DAA): 5% | % control observed (Eleusine indica; 1000 ml/Acre, 15DAA): 17.1% | % control observed (Eleusine indica; 1000 ml/Acre, 30DAA): 8.9% | % control observed (Eleusine indica; 1000 ml/Acre, 45DAA): 7.5% | % control observed (Dinebra arabica; 500 ml/Acre, 15DAA): 2.62% | % control observed (Dinebra arabica; 500 ml/Acre, 45DAA): 0.21% | % control observed (Dinebra arabica; 750 ml/Acre, 15DAA): 15.2% | % control observed (Dinebra arabica; 750 ml/Acre, 30DAA): 11.1% | % control observed (Dinebra arabica; 750 ml/Acre, 45DAA): 10% | % control observed (Dinebra arabica; 1000 ml/Acre, 15DAA): 23.4% | % control observed (Dinebra arabica; 1000 ml/Acre, 30DAA): 16.4% | % control observed (Dinebra arabica; 1000 ml/Acre, 45DAA): 14.3%

CC(C)=NOCCOC(=O)[C@@H](C)Oc1ccc(Oc2cnc3cc(Cl)ccc3n2)cc1 [Propaquizafop, (R)-2-[[(1-methylethylidene)amino]oxy]ethyl 2-[4-[(6-chloro-2-quinoxalinyl)oxy]phenoxy]propanoate]
% control observed (Acalypha indica; 400 ml/Acre, 15DAA): 7.1% | % control observed (Acalypha indica; 400 ml/Acre, 30DAA): 3.7% | % control observed (Acalypha indica; 400 ml/Acre, 45DAA): 2.9% | % control observed (Acalypha indica; 500 ml/Acre, 15DAA): 25.2% | % control observed (Acalypha indica; 500 ml/Acre, 30DAA): 12.3% | % control observed (Acalypha indica; 500 ml/Acre, 45DAA): 9.8% | % control observed (Amaranthus viridis; 400 ml/Acre, 15DAA): 8.2% | % control observed (Amaranthus viridis; 400 ml/Acre, 30DAA): 2.6% | % control observed (Amaranthus viridis; 400 ml/Acre, 45DAA): 2.3% | % control observed (Amaranthus viridis; 500 ml/Acre, 15DAA): 13.6% | % control observed (Amaranthus viridis; 500 ml/Acre, 30DAA): 7.6% | % control observed (Amaranthus viridis; 500 ml/Acre, 45DAA): 7.1% | % control observed (Commelina benghalensis; 400 ml/Acre, 15DAA): 6.8% | % control observed (Commelina benghalensis; 400 ml/Acre, 30DAA): 3.2% | % control observed (Commelina benghalensis; 400 ml/Acre, 45DAA): 2% | % control observed (Commelina benghalensis; 500 ml/Acre, 15DAA): 16.6% | % control observed (Commelina benghalensis; 500 ml/Acre, 30DAA): 10.5% | % control observed (Commelina benghalensis; 500 ml/Acre, 45DAA): 7.7% | % control observed (Digera arvensis; 400 ml/Acre, 15DAA): 13.9% | % control observed (Digera arvensis; 400 ml/Acre, 30DAA): 9.3% | % control observed (Digera arvensis; 400 ml/Acre, 45DAA): 2.1% | % control observed (Digera arvensis; 500 ml/Acre, 15DAA): 19.5% | % control observed (Digera arvensis; 500 ml/Acre, 30DAA): 15.5% | % control observed (Digera arvensis; 500 ml/Acre, 45DAA): 14.4% | % control observed (Echinochloa colona; 400 ml/Acre, 15DAA): 72.9% | % control observed (Echinochloa colona; 400 ml/Acre, 30DAA): 70.8% | % control observed (Echinochloa colona; 400 ml/Acre, 45DAA): 70.4% | % control observed (Echinochloa colona; 500 ml/Acre, 15DAA): 75.8% | % control observed (Echinochloa colona; 500 ml/Acre, 30DAA): 73.9% | % control observed (Echinochloa colona; 500 ml/Acre, 45DAA): 72.9% | % control observed (Eleusine indica; 400 ml/Acre, 15DAA): 64% | % control observed (Eleusine indica; 400 ml/Acre, 30DAA): 56.7% | % control observed (Eleusine indica; 400 ml/Acre, 45DAA): 53.4% | % control observed (Eleusine indica; 500 ml/Acre, 15DAA): 65.5% | % control observed (Eleusine indica; 500 ml/Acre, 30DAA): 57.7% | % control observed (Eleusine indica; 500 ml/Acre, 45DAA): 55.2% | % control observed (Dinebra arabica; 400 ml/Acre, 15DAA): 68.2% | % control observed (Dinebra arabica; 400 ml/Acre, 30DAA): 67% | % control observed (Dinebra arabica; 400 ml/Acre, 45DAA): 65% | % control observed (Dinebra arabica; 500 ml/Acre, 15DAA): 72.3% | % control observed (Dinebra arabica; 500 ml/Acre, 30DAA): 69.1% | % control observed (Dinebra arabica; 500 ml/Acre, 45DAA): 66%
